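Test compounds were applied to cells in 96-well plates for 48 hours at 5 doses. Here, GI50 denotes the concentration required for 50% inhibition of growth. TGI: concentration producing complete growth inhibition.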
Assays:
Assay in all cases: inhibition of tumour cell growth, NCI panel, 48 h
SK-MEL-28 melanoma = test system: SK-MEL-28 melanoma
HCC-2998 colon = test system: HCC-2998 colon
K-562 leukemia = test system: K-562 leukemia
T-47D breast = test system: T-47D breast
SK-MEL-5 melanoma = test system: SK-MEL-5 melanoma
NCI-H460 lung = test system: NCI-H460 lung
U251 CNS = test system: U251 CNS
KM12 colon = test system: KM12 colon
COLO 205 colon = test system: COLO 205 colon
HOP-92 NSCLC = test system: HOP-92 NSCLC
HOP-62 NSCLC = test system: HOP-62 NSCLC
SR leukemia = test system: SR leukemia
UO-31 renal = test system: UO-31 renal
DU-145 prostate = test system: DU-145 prostate
MOLT-4 leukemia = test system: MOLT-4 leukemia
MCF7 breast = test system: MCF7 breast
CCRF-CEM leukemia = test system: CCRF-CEM leukemia
OVCAR-4 ovarian = test system: OVCAR-4 ovarian
NCI/ADR-RES ovarian = test system: NCI/ADR-RES ovarian
BT-549 breast = test system: BT-549 breast
NCI-H522 lung = test system: NCI-H522 lung
UACC-257 melanoma = test system: UACC-257 melanoma
SF-295 CNS = test system: SF-295 CNS
OVCAR-5 ovarian = test system: OVCAR-5 ovarian
SNB-75 CNS = test system: SNB-75 CNS
A549 NSCLC = test system: A549 NSCLC
SW-620 colon = test system: SW-620 colon
SF-539 CNS = test system: SF-539 CNS
HS 578T breast = test system: HS 578T breast
ACHN renal = test system: ACHN renal
TK-10 renal = test system: TK-10 renal
M14 melanoma = test system: M14 melanoma
SK-MEL-2 melanoma = test system: SK-MEL-2 melanoma
786-0 renal = test system: 786-0 renal
MALME-3M melanoma = test system: MALME-3M melanoma
SF-268 CNS = test system: SF-268 CNS
A498 renal = test system: A498 renal
SK-OV-3 ovarian = test system: SK-OV-3 ovarian
MDA-MB-231 breast = test system: MDA-MB-231 breast
LOX IMVI melanoma = test system: LOX IMVI melanoma
SNB-19 CNS = test system: SNB-19 CNS
RXF 393 renal = test system: RXF 393 renal
RPMI-8226 leukemia = test system: RPMI-8226 leukemia
UACC-62 melanoma = test system: UACC-62 melanoma
HCT-15 colon = test system: HCT-15 colon
HCT-116 colon = test system: HCT-116 colon
HL-60(TB) leukemia = test system: HL-60(TB) leukemia
PC-3 prostate = test system: PC-3 prostate
SN12C renal = test system: SN12C renal
CAKI-1 renal = test system: CAKI-1 renal
NCI-H226 lung = test system: NCI-H226 lung
IGROV1 ovarian = test system: IGROV1 ovarian
OVCAR-3 ovarian = test system: OVCAR-3 ovarian
NCI-H23 lung = test system: NCI-H23 lung
OVCAR-8 ovarian = test system: OVCAR-8 ovarian
EKVX NSCLC = test system: EKVX NSCLC
HT29 colon = test system: HT29 colon

CSCCC(NC(=O)CNC(=O)C(CC(=O)O)NC(=O)C(NC(=O)C(NC(=O)C(NC(=O)CNC(=O)C(CCC(N)=O)NC(=O)C(CCSC)NC(=O)C(CC(=O)O)NC(=O)C(C)NC(=O)C(C)NC(=O)C(NC(=O)C(CO)NC(=O)C(N)CC(C)C)C(C)O)C(C)C)C(C)C)C(C)O)C(=O)NC(C)C(=O)NC(CO)C(=O)NCC(=O)NC(CC(C)C)C(=O)NC(CC(=O)O)C(=O)NC(CCCCN)C(=O)NC(CC(=O)O)C(=O)NC(Cc1ccc(O)cc1)C(=O)NC(CC(C)C)C(=O)NC(CCCCN)C(=O)N1CCCC1C(=O)NC(CC(=O)O)C(=O)NC(CC(=O)O)C(=O)O (centres undefined)
GI50 (SK-MEL-28 melanoma): > 82.5 µM | TGI (SK-MEL-28 melanoma): > 82.5 µM | GI50 (HCC-2998 colon): > 82.5 µM | TGI (HCC-2998 colon): > 82.5 µM | GI50 (K-562 leukemia): > 82.5 µM | TGI (K-562 leukemia): > 82.5 µM | GI50 (T-47D breast): > 82.5 µM | TGI (T-47D breast): > 82.5 µM | GI50 (SK-MEL-5 melanoma): > 82.5 µM | TGI (SK-MEL-5 melanoma): > 82.5 µM | GI50 (NCI-H460 lung): > 82.5 µM | TGI (NCI-H460 lung): > 82.5 µM | GI50 (U251 CNS): > 82.5 µM | TGI (U251 CNS): > 82.5 µM | GI50 (KM12 colon): > 82.5 µM | TGI (KM12 colon): > 82.5 µM | GI50 (COLO 205 colon): > 82.5 µM | TGI (COLO 205 colon): > 82.5 µM | GI50 (HOP-92 NSCLC): > 82.5 µM | TGI (HOP-92 NSCLC): > 82.5 µM | GI50 (HOP-62 NSCLC): > 82.5 µM | TGI (HOP-62 NSCLC): > 82.5 µM | GI50 (SR leukemia): > 82.5 µM | TGI (SR leukemia): > 82.5 µM | GI50 (UO-31 renal): > 82.5 µM | TGI (UO-31 renal): > 82.5 µM | GI50 (DU-145 prostate): > 82.5 µM | TGI (DU-145 prostate): > 82.5 µM | GI50 (MOLT-4 leukemia): > 82.5 µM | TGI (MOLT-4 leukemia): > 82.5 µM | GI50 (MCF7 breast): > 82.5 µM | TGI (MCF7 breast): > 82.5 µM | GI50 (CCRF-CEM leukemia): > 82.5 µM | TGI (CCRF-CEM leukemia): > 82.5 µM | GI50 (OVCAR-4 ovarian): > 82.5 µM | TGI (OVCAR-4 ovarian): > 82.5 µM | GI50 (NCI/ADR-RES ovarian): > 82.5 µM | TGI (NCI/ADR-RES ovarian): > 82.5 µM | GI50 (BT-549 breast): > 82.5 µM | TGI (BT-549 breast): > 82.5 µM | GI50 (NCI-H522 lung): > 82.5 µM | TGI (NCI-H522 lung): > 82.5 µM | GI50 (UACC-257 melanoma): > 82.5 µM | TGI (UACC-257 melanoma): > 82.5 µM | GI50 (SF-295 CNS): > 82.5 µM | TGI (SF-295 CNS): > 82.5 µM | GI50 (OVCAR-5 ovarian): > 82.5 µM | TGI (OVCAR-5 ovarian): > 82.5 µM | GI50 (SNB-75 CNS): > 82.5 µM | TGI (SNB-75 CNS): > 82.5 µM | GI50 (A549 NSCLC): > 82.5 µM | TGI (A549 NSCLC): > 82.5 µM | GI50 (SW-620 colon): > 82.5 µM | TGI (SW-620 colon): > 82.5 µM | GI50 (SF-539 CNS): > 82.5 µM | TGI (SF-539 CNS): > 82.5 µM | GI50 (HS 578T breast): > 82.5 µM | TGI (HS 578T breast): > 82.5 µM | GI50 (ACHN renal): > 82.5 µM | TGI (ACHN renal): > 82.5 µM | GI50 (TK-10 renal): > 82.5 µM | TGI (TK-10 renal): > 82.5 µM | GI50 (M14 melanoma): > 82.5 µM | TGI (M14 melanoma): > 82.5 µM | GI50 (SK-MEL-2 melanoma): > 82.5 µM | TGI (SK-MEL-2 melanoma): > 82.5 µM | GI50 (786-0 renal): > 82.5 µM | TGI (786-0 renal): > 82.5 µM | GI50 (MALME-3M melanoma): > 82.5 µM | TGI (MALME-3M melanoma): > 82.5 µM | GI50 (SF-268 CNS): > 82.5 µM | TGI (SF-268 CNS): > 82.5 µM | GI50 (A498 renal): > 82.5 µM | TGI (A498 renal): > 82.5 µM | GI50 (SK-OV-3 ovarian): > 82.5 µM | TGI (SK-OV-3 ovarian): > 82.5 µM | GI50 (MDA-MB-231 breast): > 82.5 µM | TGI (MDA-MB-231 breast): > 82.5 µM | GI50 (LOX IMVI melanoma): > 82.5 µM | TGI (LOX IMVI melanoma): > 82.5 µM | GI50 (SNB-19 CNS): > 82.5 µM | TGI (SNB-19 CNS): > 82.5 µM | GI50 (RXF 393 renal): > 82.5 µM | TGI (RXF 393 renal): > 82.5 µM | GI50 (RPMI-8226 leukemia): > 82.5 µM | TGI (RPMI-8226 leukemia): > 82.5 µM | GI50 (UACC-62 melanoma): > 82.5 µM | TGI (UACC-62 melanoma): > 82.5 µM | GI50 (HCT-15 colon): > 82.5 µM | TGI (HCT-15 colon): > 82.5 µM | GI50 (HCT-116 colon): > 82.5 µM | TGI (HCT-116 colon): > 82.5 µM | GI50 (HL-60(TB) leukemia): > 82.5 µM | TGI (HL-60(TB) leukemia): > 82.5 µM | GI50 (PC-3 prostate): > 82.5 µM | TGI (PC-3 prostate): > 82.5 µM | GI50 (SN12C renal): > 82.5 µM | TGI (SN12C renal): > 82.5 µM | GI50 (CAKI-1 renal): > 82.5 µM | TGI (CAKI-1 renal): > 82.5 µM | GI50 (NCI-H226 lung): > 82.5 µM | TGI (NCI-H226 lung): > 82.5 µM | GI50 (IGROV1 ovarian): > 82.5 µM | TGI (IGROV1 ovarian): > 82.5 µM | GI50 (OVCAR-3 ovarian): > 82.5 µM | TGI (OVCAR-3 ovarian): > 82.5 µM | GI50 (NCI-H23 lung): > 82.5 µM | TGI (NCI-H23 lung): > 82.5 µM | GI50 (OVCAR-8 ovarian): > 82.5 µM | TGI (OVCAR-8 ovarian): > 82.5 µM | GI50 (EKVX NSCLC): > 82.5 µM | TGI (EKVX NSCLC): > 82.5 µM | GI50 (HT29 colon): > 82.5 µM | TGI (HT29 colon): > 82.5 µM
